Source: patent US8796329B2, “Method for controlling angiogenesis in animals” (Ziopharm Oncology, Inc., priority 2006, dated 2014)
Where “and” joins values, the source holds several entries; their conditions need not be identical. Identical values can stand only once.

What was measured:
[1] = test system: HUVEC (Endothelia); assay: CellTiter-Glo Luminescent Cell Viability Assay, HUVEC; format: cell-based; conditions: Homo sapiens
Protocol: (§1) CellTiter-Glo Luminescent Cell Viability Assay (Promega Corporation) is based on quantification of ATP levels in cell cultures. The amount of ATP produced in cell culture reflects the number of viable cells. […] HUVECs and LL47 cells were seeded in 96-well plates in their growth medium. After 24 hours, various doses of the compound of formula (II) were added to both cultures side by side, having six replicates for each dose. At different treatment time points, CellTiter-Glo reagent were added to the cultures following the manufacturer's instructions; luminescence signals were measured with an EnVision™ Multilabel Reader (Perkin Elmer, Wellesley, Mass.) The blank control groups were given saline vehicle only, and positive control groups were given 10 μM T-araC (provided by Southern). Data was analyzed for the mean and standard deviation for each treatment condition. IC50 values of the compound of formula (II) against HUVEC and LL47 cell cultures were determined based on the dose response curves as shown in FIG. 1. There were several test drug concentrations with three treatment time points (2, 4, and 6 days). For the 6-day assay experiment, the culture media with different test concentration treatments was exchanged at Day 4.

[2] = test system: LL47 (Fibroblast); assay: CellTiter-Glo Luminescent Cell Viability Assay, LL47; format: cell-based; conditions: Homo sapiens
Protocol: as §1

[3] = test system: HUVEC (Endothelia); assay: 3H-thymidine incorporation assay for HUVEC; format: cell-based; conditions: Homo sapiens
Protocol: HUVEC cultures were seeded and treated in 96-well plates, as described above for the CellTiter-Glo viability assay. After treatment of HUVEC cultures with the compound of formula (II), 96-well plates were pulsed with 1 μCi of ^3H-thymidine for the final 6-18 hours of culture and then harvested with a semiautomatic cell harvester onto filters that bind the DNA. Samples were counted in a PerkinElmer Microbeta scintillation and luminescence counter (Trilux) to determine the amount of 3H-TdR uptake. The data was then transferred and processed using an Excel spreadsheet program to provide for the mean and standard deviation for % of control values. The results were analyzed by calculating IC50 values and including a table showing % of control values for each compound tested. There were several test drug concentrations with three treatment time points (2, 4, and 6 days) and 6 replicates for each test concentration as shown in FIG. 2. For the 6-day assay experiment, the culture media with different test concentration treatments was exchanged at Day 4.

[4] = test system: blood vessel density in Matrigel plugs (VEGF, FGFb, heparin as angiogenic stimuli); assay: Matrigel Plug in vivo assay, intravenous dosing; design: species or system C57BL/6 mice
Protocol: Female C57BL/6 mice around 10-weeks old and Matrigel Matrix High Concentration (from Becton Dickinson) mixed with 50 ng/mL VEGF, 50 ng/mL FGFb, and heparin 3 ng/mL as angiogenic stimuli were used for the Matrigel Plug experiments. There were two groups of mice, five mice in each group, with one group serving as a control and the second group expected to be treated once daily for 9 days with a compound of formula II at 100 mg/kg/dose (0.2 mL/10 g of body weight) by intravenous (i.v.) injection. The control group received oral saline as a vehicle. Each mouse received two Matrigel plugs. On Day 0, 500 μL Matrigel at 4° C. was subcutaneously injected to each side of the mouse, wherein the injection area was shaved. To increase the contact area of injected Matrigel into subcutaneous tissues and form a round shape plug, a wide subcutaneous pocket was formed by swaying the needle point right and left after a routine subcutaneous insertion. The injection was done rapidly with an appropriate size needle (21 G-25 G) to ensure the entire contents of the syringe were delivered in one plug. The injected Matrigel rapidly formed a single solid gel plug. […] Plugs from each group were collected at Day 12. The mice were euthanized and the mouse skin was pulled back to expose the plug. The plugs were dissected out and fixed in 10% formalin for histological analysis. Sections of 5 μm from paraffin-embedded plugs were stained with H&E. Blood vessel density in a cross sectional area of each Matrigel plug was analyzed using Image Pro-Plus software. For each group of mice, at least six Matrigel plugs were quantitatively analyzed to assess any statistical significant difference of microvessel density between groups. The quantitation of microblood vessel density using a compound of formula (II) is shown below.

[5] = test system: P388 murine leukemia; assay: Response of ip implanted P388 murine leukemia to ip and po administration; format: in vivo, mice; conditions: for treatment-related deaths / increase in lifespan (ILS) / median day of death: qld×9; for increase in lifespan (ILS): p=0.000 vs vehicle; for median day of death: vehicle control 11.5
Text: Mice were implanted ip with one million cells of P388 murine leukemia using a 23-gauge needle. The P388 tumor line was maintained as an in vivo passage. The day of tumor implantation was designated as day 0, with treatment beginning on day 1 following tumor implantation. A sufficient number of mice were implanted so that animals with body weights in a range as narrow as possible were selected for the trial.
The compound of formula (II) was formulated in saline on the first day of treatment (day 1) at a concentration of 40 mg/mL. This solution was then diluted to the lower dosing concentrations of 30, 20, and 5 mg/mL. Enough of the compound of formula (II) was prepared on day 1 for the entire dosing period. Each dosing solution was then aliquoted for daily treatments, frozen at −20° C., and thawed on each day of injection. All injections were administered on the basis of exact body weight with the injection volume being 0.2 mL/10 g body weight.
The study consisted of four treatment groups of eight mice per group and one vehicle-treated control group with ten mice, for a total of 42 mice on the first day of treatment. The study design called for the compound of formula (II) to be administered once a day for nine consecutive days (qld×9) by oral gavage at dosages of 800, 600, and 400 mg/kg/dose and by ip injection at a dosage of 100 mg/kg/dose. The control group (group 1) was treated with the vehicle (saline), which was administered po on a qld×9 injection schedule.
The study was terminated 17 days after tumor implantation. Any animal that became moribund was euthanized prior to study termination.
Number of nonspecific deaths, median days of death, and the increase in lifespan based on the median day of death and expressed as a percentage (% ILS).
The individual animals' survival time was used as the endpoint in a life tables analysis (stratified Kaplan-Meier estimation followed by the Mantel-Haenszel log-rank test) in order to statistically compare the survival data between groups.

[6] = test system: blood vessel density in Matrigel plugs; assay: Matrigel Plug in vivo assay, oral dosing; conditions: 350 mg/kg/dose oral, once daily for 9 days, plugs Day 14, male CD2F1 mice
Protocol: Male CD2F1 mice were used for the Matrigel Plug experiment. There were two groups of mice, five mice in each group, with one group serving as a control and the second group was treated once daily for 9 days with a compound of formula II at 350 mg/kg/dose (0.2 mL/10 g of body weight) by oral administration in a saline solution. The control group received oral saline as a vehicle. Each mouse received two Matrigel plugs. On Day 0, 500 μL Matrigel at 4° C. was subcutaneously injected to each side of the mouse, wherein the injection area was shaved. The injection was done rapidly with an appropriate size needle (21 G-25 G) to ensure the entire contents of the syringe were delivered in one plug. The injected Matrigel rapidly formed a single solid gel plug. On Day 14, the mice were euthanized and the mouse skin was pulled back to expose the plug. The plugs were dissected out and fixed in 10% formalin for histological analysis. Sections of 5 μm from paraffin-embedded plugs were stained with haematoxylin and eosin (H&E) stain. Blood vessel density in a cross sectional area of each Matrigel plug was analyzed using Image Pro-Plus software. Each of the plugs was fixed in 10% formalin.

With `C[As](C)SCC(NC(=O)CCC(N)C(=O)O)C(=O)NCC(=O)O` (stereo not drawn) [Compound of Formula (II)] the IC50 ([1]; 48 h, Day 2) was < 1500 µM, the IC50 ([1]; 96 h, Day 4) was < 1000 µM and the IC50 ([1]; 144 h, Day 6) was < 500 µM. For the same compound, the IC50 ([2]; 48 h, Day 2) was < 5000 µM, the IC50 ([2]; 96 h, Day 4) was < 2000 µM and the IC50 ([2]; 144 h, Day 6) was < 1500 µM. The IC50 ([3]; Day 2) was < 100 µM, the IC50 ([3]; Day 4) was < 1000 µM and the IC50 ([3]; Day 6) was < 500 µM. For the same compound, the “toxicity to C57BL/6 mice” value ([4]; 100 mg/kg/dose i.v. once daily, doses 6 and 8 skipped) was “higher than expected toxicity”, the “microblood vessel density, individual animal” value ([4]; 100 mg/kg/dose i.v., 7 doses, plugs collected Day 12, female C57BL/6 mice, animals #1-#4) was 3 and 2 (2×) and 0 and the “microblood vessel density, Average” value ([4]; 100 mg/kg/dose i.v., 7 doses, plugs collected Day 12, female C57BL/6 mice, control average 48.8) was 1.75. The “increase in lifespan, in words” value ([5]; 100 mg/kg/dose ip) was “tolerated and resulted in a minimal increase in lifespan”, the treatment-related deaths ([5]; 100 mg/kg/dose ip) was “tolerated without treatment-related deaths” and the “increase in lifespan (ILS)” value ([5]; 100 mg/kg/dose ip) was 26%. For the same compound, the “median day of death” value ([5]; 100 mg/kg/dose ip) was 14.5 days, the “increase in lifespan, in words” value ([5]; 400 mg/kg/dose po) was “tolerated and elicited a minimal increase in lifespan” and the treatment-related deaths ([5]; 400 mg/kg/dose po) was “No treatment-related deaths”. The “increase in lifespan (ILS)” value ([5]; 400 mg/kg/dose po) was 30%, the “median day of death” value ([5]; 400 mg/kg/dose po) was 15.0 days and the “reduction of angiogenesis compared to the control” value [6] was “effective in reducing angiogenesis”.
